Measured values published in US6410508B1 (priority 1998, dated 2002).

Columns and labels:
SaOS2 cells [1] = assay: Intracellular calcium measurement with fura-2 in SaOS2 cells; type: cell-based, human; details: fura-2, dose-dependent response
Method: (§1) Peak increases in intracellular calcium from four different experiments were calculated. Data is expressed as mean±SEM; *=p<0.001; **=p<0.001. […] Cellular cAMP was measured with a commercially available radioimmunoassay (Biomedical Technologies, Stoughton, Mass.). Data is expressed as mean+SEM; **=p<0.001.
Intracellular calcium measurements were made as described by Gasalla-Herraiz, et al., Biochem Biophys Res Commun 214:373-88 (1995). Briefly, SaOS2 cells were grown in 75 cm^2 flasks and removed by incubating in PBS/EGTA. Cells were loaded with the calcium sensitive dye fara-2AM in KRB, for 45 min at room temperature. The cells were then centrifuged and resuspended in KRB. After approximately 30 minutes at room temperature, to allow esterase cleavage of fura-2AM to fura-2, the cells were again centrifuged and placed in a cuvette in a dual-wavelength spectrophotometer (Photon Technologies International, South Brunswick, N.J.). Fluorescence was then measured using excitation wavelengths of 340 and 380 nm and an emission wavelength of 510 nm. Autoflourescence was measured in unloaded cells and this value subtracted from all the measurements.

[2] = test system: fetal radius and ulna bone explants; assay: Fetal long bone resorption assay (45Ca release); type: cell-based, rat; details: 10 nM PTH, GIP 10 nM
Method: Pregnant Sprague-Dawley rats (Charles River Laboratories, Kingston, N.Y.) were injected with 200 μCi^45Ca on day 18 of gestation and killed one day later to remove the labeled fetal radius and ulna. […] Medium was changed every 3 days and ^45Ca was measured after every culture period. Resorption is expressed as the ratio of ^45Ca released from treated versus control bones.

ovariectomized (OVX) rat = assay: Bone mineral density by DXA in ovariectomized and non-OVX rats; type: in vivo, Sprague-Dawley rats; details: six weeks
From the text: 1. Control. Five non-OVX rats received daily injections at the same time everyday (09:00) of saline vehicle for six weeks into the tail vein.
3. OVX. Six OVX rats received saline vehicle injected daily for six weeks.

SaOS2 cells [3] = assay: Cellular cAMP content by radioimmunoassay in SaOS2 cells; type: cell-based, human; details: GIP 1 μM
Method: as §1
cAMP measurements were done as described by Isales, et al., Endocrinology 129:489-95 (1991). Briefly, SaOS2 cells were grown to confluence in 60 mm^2 dishes and placed in KRB for 24 hours before use. In order to facilitate the measurement of cAMP production, 1 mM isomethylbutylxanthine (IBMX) was added prior to agonist addition for 10 minutes, followed by incubation with agonist for 10 minutes. Incubations were stopped by addition of 5% TCA, left on ice for 15 minutes and the cell extract collected. The extracts were neutralized by addition of a 1:1 solution ice cold Freon/Tri-N-octylamine (4:1,v/v). Each sample was vortexed for at least 30 sec to ensure adequate mixing. The mixture was then centrifaged at 2,500 rpm for 20 minutes ([…]). The top aqueous phase containing the cAMP was collected. The pH of the upper phase was checked to ensure adequate neutralization. The samples were stored at −70° C. until analysis. cAMP was measured using a commercially available radioimmunoassay (Biomedical Technologies, Stoughton, Mass.). […]

receptors for GIP = details: pancreatic β cells; depending on the cell system and the source of GIP (human versus porcine); read-out: binding affinity; cited from earlier work
SaOS2 cells [4] = assay: Collagen type I mRNA expression by northern blot in SaOS2 cells; type: cell-based, human
Method: After 24 hourg, total RNA was extracted and probed with a collagen type I specific probe. The autoradiographs were then scanned and the densitometry quantified on a Sun Sparc station using Bioimage software. (n=4, *=p<0.001). […] The densitometry of four different experiments was summed and is expressed as a bar graph; *=p<0.001 vs control, as a function of time, in FIG. 2A.
After 24 hours, total RNA was extracted from cells using Trizol. RNA (20 μg) was electrophoresed on a 1.2% agarose-formaldehyde gel and transferred to a nylon filter. The blots were hybridized overnight at 65° C. with a ^32P-labeled probe (10^6 cpm/ml), labeled by the random-priming method and washed at a maximum stringency. Blots were exposed to Kodak XAR 5 film and analyzed by densitometry, quantified on a Sun Sparc station using Bioimage software. (n=4, *=p<0.001). The collagen densitometry was normalized to GAPDH, a housekeeping gene, found not to change in response to GIP.
Total RNA was extracted from cells using Trizol (Gaithersburg, Md.). RNA was stored at −70° C. until use. RNA (20 μg) was electrophoresed on a 1.2% agarose-formaldehyde gel and transferred to a nylon filter. The blots were hybridized overnight at 65° C. with a ^32P-labeled probe (10^6 cpm/ml), labeled by the random-priming method and washed at maximum stringency. Hybridization was carried out in a solution of 7% SDS, 1% BSA, 1 mM EDTA, 250 mM Na2HPO4. The hybridized filters were washed with four 5 min washes of 2×SSC, 0.1% SDS at room temperature and twice in 0.1×SSC, 0.1% SDS for 30 min at 65° C. The blots were then exposed to Kodak XAR 5 film. The probes used were GAPDH (ATCC clone 57090), collagen 1 (i.m.a.g.e. clone# 308919) and a human GIPR fragment derived by PCR corresponding to transmembrane domains 2 to 7.

MG63 cells = assay: Alkaline phosphatase activity in MG63 cells; type: cell-based, human
Method: Shown are the Means±SEM of triplicates of four different experiments. *=p<0.05; +=p<0.001.
Alkaline phosphatase (ALP) activity was measured using a commercially available assay kit (ALP […] Colorimetric test; Sigma Diagnostic, St. Louis, Mo.). This kit measures the conversion of p-nitrophenyl phosphate top-nitrophenol and inorganic phosphate. The change in absorbance at 405 nm is directly proportional to ALP activity. MG 63 cells were grown in 6 well plates incubated with the indicated agonist for the indicated times (medium was changed daily with readdition of fresh agonist) and samples collected. The kit reagents were added to the sample cuvette in the spectrophotometer at 30° C. and absorbances at 405 nm obtained at 1, 2 and 3 minutes. ALP activity (U/L) was determined using the change in absorbance with time and a millimolar absorptivity of p-nitrophenol at 405 nm of 18.45.

## CC[C@H](C)[C@H](NC(=O)[C@H](CO)NC(=O)[C@H](Cc1ccc(O)cc1)NC(=O)[C@H](CC(=O)O)NC(=O)[C@H](CO)NC(=O)[C@@H](NC(=O)[C@H](Cc1ccccc1)NC(=O)[C@@H](NC(=O)CNC(=O)[C@H](CCC(=O)O)NC(=O)[C@H](C)NC(=O)[C@@H](N)Cc1ccc(O)cc1)[C@@H](C)O)[C@@H](C)CC)C(=O)N[C@@H](C)C(=O)N[C@@H](CCSC)C(=O)N[C@@H](CC(=O)O)C(=O)N[C@@H](CCCCN)C(=O)N[C@H](C(=O)N[C@@H](Cc1c[nH]cn1)C(=O)N[C@@H](CCC(N)=O)C(=O)N[C@@H](CCC(N)=O)C(=O)N[C@@H](CC(=O)O)C(=O)N[C@@H](Cc1ccccc1)C(=O)N[C@H](C(=O)N[C@@H](CC(N)=O)C(=O)N[C@@H](Cc1c[nH]c2ccccc12)C(=O)N[C@@H](CC(C)C)C(=O)N[C@@H](CC(C)C)C(=O)N[C@@H](C)C(=O)N[C@@H](CCC(N)=O)C(=O)N[C@@H](CCCCN)C(=O)NCC(=O)N[C@@H](CCCCN)C(=O)N[C@@H](CCCCN)C(=O)N[C@@H](CC(N)=O)C(=O)N[C@@H](CC(=O)O)C(=O)N[C@@H](Cc1c[nH]c2ccccc12)C(=O)N[C@@H](CCCCN)C(=O)N[C@@H](Cc1c[nH]cn1)C(=O)N[C@@H](CC(N)=O)C(=O)N[C@H](C(=O)N[C@H](C(=O)N[C@@H](CCC(N)=O)C(=O)O)[C@@H](C)O)[C@@H](C)CC)C(C)C)[C@@H](C)CC [GIP, Glucose-dependent Insulinotropic Peptide]
SaOS2 cells [1]
  GIP concentration at which a significant increase in [Ca2+]i occurs: 0.1 nM
[2]
  PTH-induced bone resorption: inhibits PTH-induced bone resorption
Ovariectomized (OVX) rat; OVX rats treated with GIP
  bone density versus controls: not statistically different from controls
Ovariectomized (OVX) rat; all experimental groups
  densitometry of the whole extremity: no different among the various experimental groups
Ovariectomized (OVX) rat; non-OVX control rats, GIP 0.05 mg/kg daily
  bone density versus untreated animals: lower bone density than the untreated animals, this difference was not statistically significant
SaOS2 cells [3]
  elevation in cellular cAMP content: 710 % above control
Receptors for GIP
  Kd: 0.3 to 30 nM
SaOS2 cells [4]; 1 nM GIP, 0-12 hours
  time course of GIP effect on collagen mRNA: after six hours of stimulation
SaOS2 cells [4]; higher doses (0.10, and 100 nM)
  effect on collagen synthesis: maximal effect
SaOS2 cells [4]; lower GIP dose 0.1 nM
  effect on collagen synthesis: no effect
MG63 cells
  GIP concentration significantly increasing ALP activity: 0.1 nM
MG63 cells; 0.1 nM GIP, 1-6 days
  onset of ALP activity increase: as early as two days after stimulation
MG63 cells; 0.1 nM GIP, control 1,25 vitamin D (10 ng/ml)+TGF-β (10 ng/ml)
  GIP effect on ALP versus positive control: larger than that observed with 1,25 vitamin D
MG63 cells; GIP 1-10 nM
  ALP activity at higher doses versus 0.1 nM: did not increase ALP activity any further
